Bridge positions count the residues as written; N and C are the ends. Peptide text beside a SMILES is read from it.

Consider two compounds from paper PMC7665585, “Antidepressive effect of an inward rectifier K^+ channel blocker peptide, tertiapin-RQ” (PLoS ONE, 2020).

Series [1] can be described thus: Chemical stability in mouse serum by HPLC. The series is classed as in vitro ADME. The note with it: 33.0 μM peptide mixed with equal volume of mouse serum, 37°C, 30 min; cation-exchange HPLC (HiTrap-SP), A230 nm. The procedure:
For the examination of the chemical stability, the peptide was analyzed with high-performance liquid chromatography (HPLC, JASCO, Tokyo, Japan) using a cation-exchange column (HiTrap-SP, Cytiva). TPN-RQ 33.0 μM, which was mixed with an equal volume of PBS or mouse serum, was analyzed with HPLC immediately after mixing or after incubation at 37°C for 30 min. Peptides were eluted with a gradient of NaCl from 200 to 2,000 mM in 10 mM Tris-HCl (pH 7.4), monitoring A230 nm with a UV detector (JASCO).

Series [2] relates to Male ICR mice. The experiment in a line: Wheel running test. The class given is in vivo, mouse. The note with it: i.c.v.; 4 min, immediately after EPM. The procedure:
(§1) We performed mouse behavioral experiments in accordance with our previous study. Male ICR mice (n = 199 in total) aged 5 weeks old were purchased from Shimizu Laboratory Supplies (Kyoto, Japan) and maintained in an animal facility for 7–12 days. They had free access to food and water and were kept in a 12-h light/dark cycle (08:00–20:00). Experiments were carried out between 11:00 and 17:00 in a quiet and air-conditioned experimental room, to which mice were habituated for 30–60 min before each experiment. Animal experiments were performed in accordance with the guidelines of the Physiological Society of Japan and were approved by the Committee for Animal Experiments of Kurashiki University of Science and the Arts. Peptides were dissolved in phosphate-buffered saline (PBS). Peptides were injected intracerebroventricularly (i.c.v.) 30 min before behavioral tests (typically 5 μL/mouse), according to a previous study. The mouse was placed into an anesthetizing jar, to which isoflurane (0.2 mL) was added immediately before. […]
Spontaneous motor activity was measured with a multifunctional activity wheel (MK-770, Muromachi Kikai, Tokyo, Japan). […] The number of rotations was counted automatically.

Series [3] deals with Male ICR mice. The experiment in a line: Forced swim test (FST). The note with it: i.c.v., 30 min before test, last 4 min of 6 min. The class given is in vivo, mouse. As to the method:
as §1
The forced swim test (FST) was performed in accordance with the method reported previously. […] The mouse was allowed to swim for 6 min and its activity was measured. […]

For `CC[C@H](C)[C@@H]1NC(=O)[C@H](CCCNC(=N)N)NC(=O)[C@H](CCCNC(=N)N)NC(=O)[C@H](CC(N)=O)NC(=O)[C@@H]2CSSC[C@@H](C(=O)NCC(=O)N[C@@H](CCCCN)C(=O)N[C@@H](CCCCN)C(N)=O)NC(=O)[C@H](CCCCN)NC(=O)[C@H](CCCCN)NC(=O)[C@H](Cc3c[nH]c4ccccc34)NC(=O)[C@H](CSSC[C@H](NC(=O)[C@H](CC(C)C)NC(=O)[C@H](C)N)C(=O)N[C@@H](CC(N)=O)C(=O)N2)NC(=O)[C@H](CCC(N)=O)NC(=O)[C@H](Cc2c[nH]cn2)NC(=O)[C@@H]2CCCN2C(=O)[C@H]([C@@H](C)CC)NC1=O` [Peptide 2, TPN-RQ] (H-ALCNCNRRIIPHQCWKKCGKK-NH2; disulfide 3-14, 5-18), the “chemical stability in mouse serum (HPLC peak height and retention time)” value in series [1] is “No changes in the peak height or retention time”. Further, the “spontaneous rotations in activity wheel” value with Male ICR mice [2] is on record as “decreased spontaneous motor activity”.
Regarding `CC[C@H](C)[C@@H]1NC(=O)[C@H](CCCNC(=N)N)NC(=O)[C@H](CC(N)=O)NC(=O)[C@@H]2CSSC[C@@H](C(=O)NCC(=O)N[C@@H](CCCCN)C(=O)N[C@@H](CCCCN)C(N)=O)NC(=O)[C@H](CCCCN)NC(=O)[C@H](CCCCN)NC(=O)[C@H](Cc3c[nH]c4ccccc34)NC(=O)[C@H](CSSC[C@H](NC(=O)[C@H](CC(C)C)NC(=O)[C@H](C)N)C(=O)N[C@@H](CC(N)=O)C(=O)N2)NC(=O)[C@H](CCC(N)=O)NC(=O)[C@H](CC(C)C)NC(=O)[C@@H]2CCCN2C(=O)[C@H]([C@@H](C)CC)NC(=O)[C@H]([C@@H](C)CC)NC1=O` [Peptide 3, TPN-LQ] (H-ALCNCNRIIIPLQCWKKCGKK-NH2; disulfide 3-14, 5-18; N-terminus and C-terminus assumed), in the series with Male ICR mice [3], the “immobile time in FST” value is on record as “decreased the immobile time”. The “spontaneous rotations in activity wheel” value in the series with Male ICR mice [2] is on record as “decreased”.
